From patent publication US11096925B2, “Indole derivatives for biofilm disruption and inhibition” (LIFE MATTERS LTD., priority 2015, dated 2021)
Entries after “also recorded” stand apart in the source; their conditions may differ.

Experiments:
P. stuartii = test: Biofilm formation under static conditions, CLSM; assay type: cell-based, Providencia stuartii; details: 50 μM DIM
Description: (§1) FIGS. 5A-D show biofilm attenuation of the pathogens P. stuartii (A), S. marcescens (B), A. baumannii (C) and P. aeruginosa PA01 (D). Cultures were grown in the presence of either 50 μM DIM or an equivalent amount of DMSO for control. Biofilms were stained with the LIVE/DEAD bacterial viability kit. For each species and per treatment, live, dead and total bio-volumes (μm^3/μm^2) were calculated based on image analysis and data from the IMARIS software, and % biofilm inhibition was calculated based on live bio-volumes. The results are the average values of analysis of at least three micrographs.
(§2) The current study investigated the influence of DIM on the biofilm formation process and on the destruction of existing biofilms of several pathogenic gram-negative bacterial strains.

P. aeruginosa PA01 [1] = test: Biofilm formation under static conditions, CLSM with Live/Dead staining; assay type: cell-based, Pseudomonas aeruginosa; details: for density of attached cells (biofilm) / mortality of the bacterial cells: 50 μM; for density of attached cells (biofilm): 18 h static incubation at 37° C.; for mortality of the bacterial cells: compared with DMSO control
Description: (§3) FIGS. 1A-B show prevention of biofilm formation. Confocal laser scanning micrographs (CLSM) of P. aeruginosa PA01 (A) and A. baumannii (B) formed in glass-bottomed 96 well plates after 18 h of static incubation at 37° C. Cultures were grown in the presence of either 50 μM DIV or NN, or an equivalent amount of DMSO for control. Biofilms were stained using the Live/Dead bacterial viability kit. Live, dead and total bio-volumes (μm^3/μm^2) were calculated based on image analysis and data from the IMARIS software. Bars indicate standard deviations for triplicate sets of experiments.
as §1
(§4) Bioflims of P. aeruginosa and A. baumanii that were developed on glass slides were determined using confocal scanning laser microscopy (CSLM) (FIG. 1). Accordingly, the density of the biofilms prior to and following treatment by NN and DIV was measured.
as §2

P. aeruginosa PA01 [2] = test: Virulence factor production, spectrophotometry of cell-free culture; assay type: cell-based, Pseudomonas aeruginosa; details: for virulence factors production: P. aeruginosa PA01 grown with 50 μM compound
Description: (§5) FIGS. 3A-B show effect on, P. aeruginosa PA01 pathogenesis. (A) Inhibition of virulence factors production in P. aeruginosa PA01, which were grown in the presence of 50 μM NN or DIV. Tetracycline is used as positive control. Results are based on OD measurements distinctive to each factor and normalized to bacterial growth at OD600 nm. Error bars represent SD of three independent repetitions. (B) C. elegans killing assay assed by SYTOX Orange stain within 24 h.
Results are based on OD measurements specific to each factor and normalized to the growth OD of 600 nm. Bars indicate standard deviations for triplicate sets of experiments.
(§6) Driven by an arsenal of virulence factors added to the biofilm mode of growth, P. aeruginosa PA01 pathogenesis depends on the type of the infection. Therefore, both compounds were tested for their abilities to suppress prominent virulence determinants (FIG. 3A). […] Measuring nematode survivorship following exposure to P. aeruginosa in the absence and presence of modulating compounds, therefore, provides a good model for assessing the effectiveness of the novel compounds on the pathogenesis of the bacteria.
The basis of P. aeruginosa pathogenicity is an arsenal of virulence determinants designed for survival and proliferation in the host that enable bacterial invasion and the subsequent establishment of infection. The success of this microorganism is largely due to its ability to form intractable biofilms and to produce myriad virulence factors controlled by a quorum-sensing (QS) system.

A. baumannii [3] = test: Biofilm formation under static conditions, CLSM with Live/Dead staining; assay type: cell-based, Acinetobacter baumannii; details: for density of attached cells (biofilm) / mortality of the bacterial cells: 50 μM; for density of attached cells (biofilm): 18 h static incubation at 37° C.; for mortality of the bacterial cells: compared with DMSO control
Description: as §3, §1, §4, §2

A. baumannii [4] = test: Biofilm formation in dynamic flow-cell system; assay type: cell-based, Acinetobacter baumannii
Excerpt: (§7) In addition, we tested the anti-biofilm properties of the well-studied anti-cancer compound 3,3′-Diindolylmethane (DIM), a metabolite found in cruciferous vegetables. Inhibition of biofilm establishment by DIM was investigated with different clinical pathogens under static conditions. Biofilm formation by A. baumannii and P. aeruginosa was further tested in a dynamic flow-cell system, in which biofilm inhibition levels of 86% and 76% were obtained, respectively. […] Further examination of the hypothesized synergistic effect obtained by combining conventional antibiotics with the DIM compound may offer a promising strategy for the eradication of biofilm complexes.

Erwinia carotovora = test: Biofilm formation by plant-associated bacteria, static 96 well plates, CLSM; assay type: cell-based; details: 50 μM, 18 h static
Description: Biofilm formed in glass-bottomed 96 well plates after 18 h of static incubation at 37° C. was investigated by confocal laser scanning micrographs (CLSM). Cultures were grown in the presence of either 50 μM DIM or NN, or an equivalent amount of DMSO for control. Biofilms were stained using the Live/Dead bacterial viability kit. Live, dead and total bio-volumes (μm^3/μm^2) were calculated based on image analysis and data from the IMARIS software.
Erwinia carotovora was cultured in glass-bottomed 96 well plates for 18 h in static conditions. The growth medium was provided with either 50 μM DIM or NN and the resulted biofilms was investigated using CSLM.

P. aeruginosa = test: Biofilm formation in dynamic flow-cell system; assay type: cell-based, Pseudomonas aeruginosa
Excerpt: as §7

P. larvae = details: agar diffusion method (Brenda et al., 2010); cited from earlier work
[5] = test system: P. aeruginosa PA01 mature biofilm; test: Destruction of mature biofilm in flow cell, CLSM; assay type: cell-based, Pseudomonas aeruginosa; details: 72 h biofilm, then 48 h treatment, 50 μM compound, 20 μg/ml tobramycin
Description: FIG. 2 depicts destruction of P. aeruginosa PA01 mature biofilm; biofilm formed in a flow cell after 72 h of incubation at 37° C. and 48 h more in the presence of 50 μM NN, 20 μg/ml Tobramycin, and 50 μM NN with 20 μg/ml tobramycin. Biofilms were stained with Live/Dead bacterial viability kit. Quantification of BioVolume; Live, dead and total bio-volumes (μm^3/μm^2) calculated based on image analysis and data from the IMARIS software. The images were acquired from three different areas in each treatment.
FIG. 6. depicts destruction of mature, differentiated biofilm of P. aeruginosa PA01. Statistical analysis of CSLM images of biofilm formed in a flow system after 120 h, and with supplementation of 50 μM DIM, 20 μg/ml Tobramycin and a combined treatment of 50 μM DIM with 20 μg/ml Tobramycin. Biofilms were stained with the LIVE/DEAD bacterial viability kit. Quantification of bio-volume: live, dead and total bio-volumes (μm^3/μm^2) were calculated based on image analysis and data from the IMARIS software.
Dynamic growth conditions in flow cell systems are considered to be representative of the real conditions in humeral tissues, where the pathogen thrives in enriched settings. […] Once the efficiency of the new compounds was tested, we proceeded to assess the efficacy of adding antibiotic treatment to the novel compounds to eradicate biofilm (FIG. 2). […] On the other hand, when treated by both the antibiotic and the NN, the biofilm was eradicated and the bacterial cells died.
To investigate the combined destructive effect of the biofilm inhibitor compound and an antibiotic, P. aeruginosa PA01 was cultured for 72 h in the continuous flow system until a mature biofilm had been established Immediately after its establishment, the biofilm was challenged with DIM and/or the antibiotic tobramycin, the known activity of which is protein synthesis inhibition (FIG. 6).

S. marcescens = test: Biofilm formation under static conditions, CLSM; assay type: cell-based, Serratia marcescens; details: 50 μM DIM
Description: as §1, §2

[6] = test system: A549 Human Lung Cell line infected by P. aeruginosa; test: Cytotoxicity and apoptosis of A549 cells infected with pre-treated bacteria, calcein staining; assay type: cell-based; details: bacteria pre-treated with compound, 24 h
Description: FIGS. 4A-B show reduced adhesion and virulence of P. aeruginosa PA01 in human A549 lung cells model. (A) Cytotoxicity effect and apoptosis of A549 cells by P. aeruginosa PA01 pre-treated with DIV or NN during 24 h. The infection progress was monitored by calcein staining using Operetta screening system. All the experiments were performed in triplicates. (B) Adhesion of P. aeruginosa PA01 (5×10^7 CFU/ml) pre-treated with DIV or NN to A549 cells for 1 hr of incubation. Excess bacteria were removed and the released cells were plated followed CFU counts determination.
In order to test the possible effects of these compounds on higher organisms, we tested NN and DIV on A549 Human Lung Cell line infected by P. aeruginosa. Additional tests were carried out for NN and DIV to assess the effect of this compound to enhance the survival of A549 cells during infection with P. aeruginosa PA01. […] Due the fact that adherence to a humeral cell is considered a crucial step in the bacterial infection initiation process, P. aeruginosa PA01 pre-treated with DIV or NN was tested for its adherence potency to lung epithelial cells A549.

[7] = test system: Caenorhabditis elegans infected by Pseudomonas aeruginosa; test: C. elegans killing assay; assay type: in vivo; details: SYTOX Orange stain within 24 h
Description: as §5, §6

Compound	biofilm formation / density of attached cells (Erwinia carotovora)	destruction of mature biofilm [5]	density of attached cells (biofilm) (P. aeruginosa PA01 [1])	mortality of the bacterial cells (P. aeruginosa PA01 [1])	virulence factors production (P. aeruginosa PA01 [2])	density of attached cells (biofilm) (A. baumannii [3])	mortality of the bacterial cells (A. baumannii [3])	cytotoxicity effect and apoptosis of A549 cells by pre-treated P. aeruginosa PA01 [6]	survivorship of C. elegans following exposure to P. aeruginosa [7]	other results
c1ccc2c(Cc3c[nH]c4ccccc34)c[nH]c2c1 [DIM, di(1H-indol-3-yl)methane]	prevents biofilm formation	destruction of existing, stable biofilm								biofilm formation compared to control (P. stuartii): substantially reduced biofilms; biofilm formation compared to control (P. aeruginosa PA01 [1]; 50 μM DIM, static): substantially reduced biofilms; reduction in chitinase production (P. aeruginosa PA01 [2]; 50 μM DIM): 35%; reduction in elastase (P. aeruginosa PA01 [2]; 50 μM DIM): 19%; reduction in protease (P. aeruginosa PA01 [2]; 50 μM DIM): 10%; reduction in pyocyanin (P. aeruginosa PA01 [2]; 50 μM DIM): 21%; reduction in pyoverdine (P. aeruginosa PA01 [2]; 50 μM DIM): 20%; biofilm formation compared to control (A. baumannii [3]; 50 μM DIM, static): substantially reduced biofilms; biofilm inhibition levels (A. baumannii [4]): 86%; biofilm inhibition levels (P. aeruginosa): 76%; antibiotic activity against P. larvae (P. larvae): antibiotic activity; biofilm formation compared to control (S. marcescens): substantially reduced biofilms
c1ccc2c(c1)ccn2-n1ccc2ccccc21 [NN, 1,1′-Biindole]	prevents biofilm formation	reduced but not eradicated	reduction of density of attached cells; also recorded: most effective	negligible mortality	reduced significantly	smaller effects	negligible mortality	suspended the cytotoxicity effect and apoptosis killing	significantly increased survivorship	
NC[C@H]1O[C@H](O[C@H]2[C@H](O)[C@@H](O[C@H]3O[C@H](CO)[C@@H](O)[C@H](N)[C@H]3O)[C@H](N)C[C@@H]2N)[C@H](N)C[C@@H]1O [tobramycin, Tobramycin, reference compound]		dense biofilm similar to that of the control								destruction of mature biofilm ([5]; listed as antibiotic): little loss of biofilm
c1ccc2c(c1)CC(c1cc3ccccc3[nH]1)N2 (centres unmarked) [DIV, 2-(indolin-2-yl)-1H-indole]			reduction of density of attached cells	negligible mortality	reduced significantly	smaller effects	negligible mortality	suspended the cytotoxicity effect and apoptosis killing	pathogenesis of P. aeruginosa is reduced	
